Results from US20240398830A1, “COMPOSITIONS AND USES THEREOF FOR TREATMENT OF NEUROLOGICAL DISORDERS” (UNIVERSITY OF SOUTH FLORIDA, priority 2021, published 2024).

Columns and labels:
Type in all cases: cell-based
[1] = test system: glucocorticoid receptor response element (GRE); assay: GRE reporter luciferase assay in dexamethasone treated HeLa cells; conditions: dexamethasone treated HeLa cells transfected with empty vector or FKBP51 vector (FIG. 3)
FKBP51 [2] = assay: Immunoblot analysis of dexamethasone induced FKBP51 levels in HT-22 mouse hippocampal neuronal cell line; conditions: 20 μM compound, 500 nM dexamethasone, immunoblot (FIG. 2)
FKBP51 [3] = assay: Immunoblot analysis of dexamethasone induced FKBP51 levels in H4 human neuroglioma cell line; conditions: 10 μM compound, dexamethasone containing media, 24 h, immunoblot (FIG. 1)
Description: FIGS. 1A-1B show qPCR (FIG. 1A) and immunoblot analysis (FIG. 1B) of FKBP51 levels in cultures of H4 human neuroglioma cell line treated with methyl acetate vehicle (MeOAc) or ethanol vehicle (ETOH) or 10 μM 15-deoxy-12,14-prostaglandin J2 (J2) or 10 μM 9-nitro oleic acid (9N), or 10 μM 10-nitro oleic acid (ION) in control (dimethyl sulfoxide; DMSO) or dexamethasone (Dex) containing media for 6 h and 24 h. Cultures incubated with treatments for 6 h were used for RNA analysis whereas cultures incubated with treatments for 24 h were used for protein analysis. Bars represent mean±SEM; n=3 independent experiments.

Compound | glucocorticoid receptor response (GRE reporter luciferase) [1] | dexamethasone induced FKBP51 protein levels (FKBP51 [2]) | dexamethasone induced FKBP51 protein levels (FKBP51 [3])
CCCCCCCC/C=C(\CCCCCCCC(=O)O)[N+](=O)[O-] [9-nitro oleic acid, 9-nitro-9E-octadecenoic acid] | alter glucocorticoid receptor response | inhibit dexamethasone induced FKBP51 protein levels | inhibit dexamethasone induced FKBP51 protein levels
CCCCCCCC/C(=C\CCCCCCCC(=O)O)[N+](=O)[O-] [10-nitro oleic acid, 10-nitro-9E-octadecenoic acid] | alter glucocorticoid receptor response | inhibit dexamethasone induced FKBP51 protein levels | inhibit dexamethasone induced FKBP51 protein levels
CCCCC/C=C/C=C1/C(=O)C=C[C@@H]1C/C=C\CCCC(=O)O [15-deoxy-12,14-prostaglandin J2, 15-deoxy-Δ12,14-prostaglandin J2] | alter glucocorticoid receptor response | inhibit dexamethasone induced FKBP51 protein levels | inhibit dexamethasone induced FKBP51 protein levels
